Test: Measurement of oxidation induction time (OIT) by DSC
Conditions: for Time [min] at 180° C. (time to oxidation, oxidation induction time): isothermal 180° C., O2 atmosphere 50 ml/min, with polyisoprene LIR-50, DSC peak
Protocol: The compound of formula III) was investigated under laboratory conditions for its potential protective effect as an aging stabilizer by measurement of the oxidation induction time.
To this end the compounds of formula III) and 6-PPD in each case together with a polymer (liquid synthetic polyisoprene (IR), LIR-50, Kuraray, weight average molecular weight distribution Mw=54 000 g/mol, glass transition temperature Tg=−63° C.) were heated at constant temperature (180° C.) until onset of oxidation (start temperature 35° C., heating to 170° C. at a heating rate of 20 K/min (kelvin per minute), heating to 180° C. at a heating rate of 1 K/min; purge gas: nitrogen (N2), volume flow 50 ml/min).
The specimen was kept under isothermal conditions at 180° C. under an N2 atmosphere for 5 minutes and the atmosphere was then switched to an 02 atmosphere (volume flow 50 ml/min).
Oxidation was determined via a peak using DSC (differential scanning calorimetry).
The time in minutes to oxidation was measured.

protective effect as aging stabilizer (from OIT) (taking into account measurement accuracy of 10 minutes) | Structure (SMILES) | Time [min] at 180° C. (time to oxidation, oxidation induction time)
– | CC(C)CC(C)Nc1ccc(Nc2ccccc2)cc1 (stereo not drawn) [Substance 6PPD, N-(1,3-dimethylbutyl)-N′-phenyl-p-phenylenediamine, reference compound] | 116 ± 10 min
protective effect comparable to 6PPD | CC1CCC2C(C1)Nc1ccc(Nc3ccccc3)cc1C2(C)C (stereo not drawn) [Formula III), 6,9,9-trimethyl-N-phenyl-5,6,7,8,8a,9,10,10a-octahydroacridin-2-amine] | 93 ± 10 min

Reference: patent US20250115739A1, “COMPOUND, RUBBER BLEND CONTAINING THE COMPOUND, VEHICLE TIRE COMPRISING THE RUBBER BLEND IN AT LEAST ONE COMPONENT, PROCESS FOR PREPARING THE COMPOUND, AND USE OF THE COMPOUND AS AN ANTI-AGING AGENT AND/OR ANTIOXIDANT” (Continental Reifen Deutschland GmbH, priority 2022, published 2025)
